Consider 1 molecule from publication PMC11469372, “Plasmodium SEY1 is a novel druggable target that contributes to imidazolopiperazine mechanism of action” (Research Square, 2024).

For assay [1], the target named is T1, PkSEY1 (Plasmodium knowlesi SEY1) (Plasmodium knowlesi, UniProt B3LAJ9).
T1 construct: Full-length, His-tagged (recombinant)
Description: surface plasmon resonance (Biacore […], NTA chip). In kind it is binding.

For assay [2], the target named is T2, PfSTOML (Plasmodium falciparum, UniProt O77376).
T2 construct: gene PF3D7_0318100
Kind of assay: proteomic affinity chromatography with GNF179 beads, competition with free GNF179 (TMT MS/MS), parasite lysate. In kind it is biochemical.

Assay [3] addresses T3, PvSEY1 (Plasmodium vivax SEY1) (Plasmodium vivax, UniProt A5K168).
T3 construct: Full-length PvSEY1-myc-His from E. coli, Ni-NTA eluate
T3 sequence (A5K168 1-889): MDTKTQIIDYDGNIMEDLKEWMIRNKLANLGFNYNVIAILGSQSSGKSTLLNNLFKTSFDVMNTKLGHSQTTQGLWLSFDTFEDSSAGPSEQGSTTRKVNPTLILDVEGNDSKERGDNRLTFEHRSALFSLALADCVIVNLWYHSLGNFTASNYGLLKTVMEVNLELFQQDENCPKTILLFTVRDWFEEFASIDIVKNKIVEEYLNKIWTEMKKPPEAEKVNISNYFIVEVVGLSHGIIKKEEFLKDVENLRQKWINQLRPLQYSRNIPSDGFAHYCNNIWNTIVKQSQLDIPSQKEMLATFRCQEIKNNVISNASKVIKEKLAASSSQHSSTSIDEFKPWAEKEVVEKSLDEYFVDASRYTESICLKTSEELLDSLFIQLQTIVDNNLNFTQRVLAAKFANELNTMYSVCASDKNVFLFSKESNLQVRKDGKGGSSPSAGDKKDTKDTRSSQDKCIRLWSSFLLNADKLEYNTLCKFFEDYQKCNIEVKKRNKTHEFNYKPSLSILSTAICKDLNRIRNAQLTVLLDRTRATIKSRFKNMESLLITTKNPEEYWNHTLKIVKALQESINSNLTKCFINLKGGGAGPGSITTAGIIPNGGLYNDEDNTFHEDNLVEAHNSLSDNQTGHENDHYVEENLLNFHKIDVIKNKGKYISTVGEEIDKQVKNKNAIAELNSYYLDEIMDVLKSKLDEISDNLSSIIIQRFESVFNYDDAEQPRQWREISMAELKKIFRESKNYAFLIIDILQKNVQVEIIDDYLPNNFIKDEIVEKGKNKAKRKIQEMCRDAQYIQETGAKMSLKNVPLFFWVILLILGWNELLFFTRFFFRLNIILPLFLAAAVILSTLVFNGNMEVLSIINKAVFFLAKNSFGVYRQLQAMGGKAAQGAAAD
Description: GTPase assay (EnzChek free phosphate) at […] GNF179; also destabilized in lysate thermal shift assay. The class given is biochemical.

Assay [4] addresses T4, HsFLOT2 (Homo sapiens, UniProt Q14254).
T4 construct: gene FLOT2
T4 sequence (Q14254 2-428): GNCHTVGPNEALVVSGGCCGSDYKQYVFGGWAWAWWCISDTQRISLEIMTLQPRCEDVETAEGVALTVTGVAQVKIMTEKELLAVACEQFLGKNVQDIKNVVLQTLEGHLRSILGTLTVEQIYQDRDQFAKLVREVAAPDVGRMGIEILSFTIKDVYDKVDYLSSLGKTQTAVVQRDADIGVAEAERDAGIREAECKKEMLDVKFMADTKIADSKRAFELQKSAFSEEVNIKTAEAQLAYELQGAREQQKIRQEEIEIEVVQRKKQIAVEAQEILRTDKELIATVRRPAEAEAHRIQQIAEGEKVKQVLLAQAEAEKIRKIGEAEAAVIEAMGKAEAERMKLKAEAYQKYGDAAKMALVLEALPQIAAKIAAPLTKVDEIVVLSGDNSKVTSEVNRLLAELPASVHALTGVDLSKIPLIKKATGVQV
Description: proteomic affinity chromatography with GNF179 beads, competition with free GNF179 (TMT MS/MS), lysate. In kind it is biochemical.

Assay [5] addresses T5, HsFLOT1 (Homo sapiens, UniProt O75955).
T5 construct: gene FLOT1
T5 sequence (O75955 1-427): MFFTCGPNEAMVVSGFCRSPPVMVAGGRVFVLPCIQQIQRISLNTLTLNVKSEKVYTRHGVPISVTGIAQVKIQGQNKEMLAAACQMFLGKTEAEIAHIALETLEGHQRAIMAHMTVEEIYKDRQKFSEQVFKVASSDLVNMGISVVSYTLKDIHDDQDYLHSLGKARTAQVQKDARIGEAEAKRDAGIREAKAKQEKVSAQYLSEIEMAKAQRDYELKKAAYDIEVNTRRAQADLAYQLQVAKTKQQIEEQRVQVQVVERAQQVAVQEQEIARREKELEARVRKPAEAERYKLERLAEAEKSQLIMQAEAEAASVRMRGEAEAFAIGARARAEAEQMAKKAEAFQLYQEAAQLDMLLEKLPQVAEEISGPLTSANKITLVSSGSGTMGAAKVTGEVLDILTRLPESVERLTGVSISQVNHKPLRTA
The description is as above. The class given is biochemical.

T1 sequence (B3LAJ9 whole entry): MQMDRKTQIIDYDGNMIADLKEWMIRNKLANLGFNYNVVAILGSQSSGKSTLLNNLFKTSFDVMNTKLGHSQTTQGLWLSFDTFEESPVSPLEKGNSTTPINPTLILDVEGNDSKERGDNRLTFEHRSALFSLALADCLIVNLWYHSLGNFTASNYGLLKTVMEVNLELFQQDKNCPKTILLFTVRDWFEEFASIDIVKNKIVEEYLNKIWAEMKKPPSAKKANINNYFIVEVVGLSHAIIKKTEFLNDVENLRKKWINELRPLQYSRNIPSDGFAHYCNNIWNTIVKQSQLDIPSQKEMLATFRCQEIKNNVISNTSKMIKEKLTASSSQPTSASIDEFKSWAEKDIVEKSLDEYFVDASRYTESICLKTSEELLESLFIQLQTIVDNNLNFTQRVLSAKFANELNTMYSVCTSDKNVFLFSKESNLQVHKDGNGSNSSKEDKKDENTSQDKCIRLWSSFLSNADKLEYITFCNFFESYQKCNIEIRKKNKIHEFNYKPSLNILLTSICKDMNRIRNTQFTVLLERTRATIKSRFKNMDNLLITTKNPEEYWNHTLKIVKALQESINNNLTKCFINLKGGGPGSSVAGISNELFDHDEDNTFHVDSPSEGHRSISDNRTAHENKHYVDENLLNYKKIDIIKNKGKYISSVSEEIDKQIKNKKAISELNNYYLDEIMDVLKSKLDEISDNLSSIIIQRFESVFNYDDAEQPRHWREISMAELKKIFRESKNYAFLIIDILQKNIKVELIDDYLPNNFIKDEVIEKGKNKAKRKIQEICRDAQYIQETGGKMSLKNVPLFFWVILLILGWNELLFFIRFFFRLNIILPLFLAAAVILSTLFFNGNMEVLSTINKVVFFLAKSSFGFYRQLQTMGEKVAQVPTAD
T2 sequence (O77376 entry or part of it): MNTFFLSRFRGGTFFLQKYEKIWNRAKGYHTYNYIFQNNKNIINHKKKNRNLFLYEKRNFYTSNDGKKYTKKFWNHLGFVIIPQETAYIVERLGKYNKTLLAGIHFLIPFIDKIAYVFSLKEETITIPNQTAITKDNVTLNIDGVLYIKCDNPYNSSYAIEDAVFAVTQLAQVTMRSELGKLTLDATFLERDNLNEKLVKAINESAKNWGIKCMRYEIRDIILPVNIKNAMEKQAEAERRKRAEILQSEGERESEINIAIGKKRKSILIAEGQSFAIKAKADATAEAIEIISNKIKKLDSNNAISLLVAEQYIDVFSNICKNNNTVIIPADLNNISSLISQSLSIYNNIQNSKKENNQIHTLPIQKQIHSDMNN

Turning to `CC1(C)c2nc(-c3ccc(F)cc3)c(Nc3ccc(Cl)cc3)n2CCN1C(=O)CN` [GNF179], the Kd turned out to be 144000 nM in assay [1], 3170 nM in assay [2], 390 nM in assay [4] and 340 nM in assay [5]. Moreover, the “GTPase assay (EnzChek free phosphate) at 125 μM GNF179; also destabilized in lys” value in assay [3] is listed as “These results indicate a reduction of PvSEY1 GTPase activity by GNF179”.
